This note sets out measurements from US20210395256A1, “TYROSINE KINASE INHIBITORS, COMPOSITIONS AND METHODS THERE OF” (Betta Pharmaceuticals Co., Ltd., priority 2018, published 2021).

Assay type in all cases: in vitro ADME
Series [1] in a line: Liver microsomes metabolic stability assay, human. The following applies: human liver microsomes 0.5 mg/mL, 37° C.; for half-life at 2 μM: read-out: t1/2 Human. The procedure, abridged:
(§1)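 Pooled human, male rat or male mouse liver microsomes (0.5 mg/mL final) incubated at 37° C with 2 μM compound, with or without 1 mM NADPH. Samples at 0-60 min quenched in cold acetonitrile and analyzed by LC-MS/MS in duplicate. t1/2 derived from ln(% remaining) vs time slope, converted to CLint (μL/min/mg).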
(In general: Liver microsomes are a subcellular fraction often used to study metabolism.)

Series [2] in a line: Liver microsomes metabolic stability assay, mouse. The following applies: male, mouse liver microsomes 0.5 mg/mL, 37° C.; for half-life at 2 μM: read-out: t1/2 Mouse. The procedure, abridged:
as §1

A short description of series [3]: Plasma protein binding (equilibrium dialysis), human. As to conditions: for recovery at 6 h, 1 μM / fraction unbound at 6 h, 1 μM: pH 7.4, human plasma, 6 hours dialysis; for fraction unbound at 6 h, 1 μM: read-out: Mean % Bound Human (converted). As to the method:
(§2) Example 204 Plasma Protein Binding Measurements
(§3) The plasma protein binding was measured as the following procedure.
(§4) 1) Preparation of 100 mM sodium phosphate and 150 mM NaCl buffer (PBS)
(§5) A basic solution was prepared by dissolving 14.2 g/L Na2HPO4 and 8.77 g/L NaCl in deionized water and the solution could be stored at 4° C. for up to 7 days. An acidic solution was prepared by dissolving 12.0 g/L NaH2PO4 and 8.77 g/L NaCl in deionized water and the solution could be stored at 4° C. for up to 7 days. The basic solution was titrated with the acidic solution to pH 7.4 and store at 4° C. for up to 7 days. pH was checked on the day of experiment and was adjusted if outside specification of 7.4±0.1.
(§6) Frozen plasma was thawed immediately at room temperature.
(§7) The plasma was centrifuged at 3,220 g for 10 minutes to remove clots and supernatant was collected into a fresh tube. The pH of the plasma was checked and recorded.
(§8) Note: a). Only use plasma that has been thawed no more than twice since arrival. b). Only use plasma within the range of pH 7 to pH 8.
(§9) 3) Preparation of working solutions
(§10) The working solutions of test compounds and control compound ketoconazole were prepared in DMSO at the concentration of 200 μM. And then 3 μL of working solution was removed to mix with 597 μL of human, rat or mouse plasma to achieve a final concentration of 1 μM (0.5% DMSO). Plasma samples were vortexed thoroughly.
(§11) 4) Preparation of dialysis membranes
(§12) The dialysis membranes were soaked in ultrapure water for 60 minutes to separate strips, then in 20% ethanol for 20 minutes, finally in dialysis buffer for 20 minutes.
(§13) 5) Procedure for equilibrium dialysis
(§14) The dialysis apparatus was assembled according to the manufacturer's instruction. Each cell was filled with 120 μL of plasma sample and dialyzed against equal volume of dialysis buffer (PBS). The assay was performed in duplicate. The dialysis plate was sealed and incubated in an incubator at 37° C. with 5% CO2 at 100 rpm for 6 hours. At the end of incubation, seal was removed and 50 μL of samples from both buffer and plasma chambers were transferred to wells of a 96-well plate.
(§15) 6) Procedure for sample analysis
(§16) 50 μL of blank plasma was added to each buffer samples and an equal volume of PBS was supplemented to the collected plasma sample. 300 μL of room temperature quench solution (acetonitrile containing internal standards (1S, 100 nM Alprazolam, 500 nM Labetalol and 2 μM Ketoprofen)) was added to precipitate protein. Samples in plate were vortexed for 5 minutes and centrifuged at 3,220 g for 30 minutes at 4° C. And then 100 μL of the supernatant was transferred to a new 96-well plate with 100 μL or 200 μL water (depends on the LC-MS signal response and peak shape) for LC-MS/MS analysis.
(§17) Calculate the percentages of test compound and control compound bound as follows:
(§18) % Free=(Peak Area Ratiobuffer chamber/Peak Area Ratioplasma chamber)*100
(§19) % Recovery=(Peak Area Ratiobuffer chamber+Peak Area Ratioplasma chamber)/Peak Area Ratio total sample*100
(§20) Peak Area Ratiobuffer chamber means the conc for free fraction
(§21) Peak Area Ratioplasma chamber means the conc for both free and bound fraction
(§22) Peak Area Ratiototal sample means the conc for starting sample before incubation
On the technique in general: In equilibrium dialysis only unbound substance equilibrates across the membrane.

The nature of series [4]: Plasma protein binding (equilibrium dialysis), rat. The following applies: pH 7.4, 6 hours dialysis; for fraction unbound at 6 h, 1 μM: read-out: Mean % Bound Rat (converted). As to the method:
as §2, §3, §4, §5, §6, §7, §8, §9, §10, §11, §12, §13, §14, §15, §16, §17, §18, §19, §20, §21, §22

`Cc1nnc(-c2cnn3ccc(N4CCCC4c4cc(F)ccc4F)nc23)[nH]1` (stereo not shown) [Comparative compound A, 5-[2-(2,5-Difluorophenyl)pyrrolidin-1-yl]-3-(5-methyl-1H-1,2,4-triazol-3-yl)pyrazolo[1,5-a]pyrimidine, reference compound]: the microsomal CLint – broadly, the capacity of the preparation to metabolise the compound, expressed as a volume cleared per time – at 2 μM in series [1] came out at 108 µL/min/mg; in series [2], 214 µL/min/mg. For the same molecule, the half-life at 2 μM in series [1] is 12.8 min; in series [2], 6.47 min. For the same molecule, the “degree of plasma protein binding (in words)” value in series [3] (as shown in Table 16) is “high degree of plasma protein binding”. Further, the recovery at 6 h, 1 μM in series [3] and in series [4] was 93.8% throughout. Moreover, the fraction unbound at 6 h, 1 μM in series [3] is 0.0323; in series [4], 0.0729.
`C[C@H](O)c1nnc(-c2cnn3ccc(N4CCC[C@@H]4c4cc(F)ccc4F)nc23)[nH]1` [Compound 4, (S)-1-(5-(5-((R)-2-(2,5-difluorophenyl)pyrrolidin-1-yl)pyrazolo[1,5-a]pyrimidin-3-yl)-4H-1,2,4-triazol-3-yl)ethan-1-ol]: the figures for the microsomal CLint at 2 μM in series [1] and in series [2] were 20.4 µL/min/mg and 96.4 µL/min/mg, respectively. Also, the half-life at 2 μM in series [1] was determined as 67.9 min; in series [2], 14.4 min. For the same molecule, the fraction unbound at 6 h, 1 μM was 0.0691 in series [3] and 0.1 in series [4].
With `CC(C)(O)c1nnc(-c2cnn3ccc(N4CCC[C@@H]4c4cc(F)ccc4F)nc23)[nH]1` [Compound 7, (R)-2-(5-(5-(2-(2,5-difluorophenyl)pyrrolidin-1-yl)pyrazolo[1,5-a]pyrimidin-3-yl)-4H-1,2,4-triazol-3-yl)propan-2-ol], in series [1], the microsomal CLint at 2 μM turned out to be 11.1 µL/min/mg and the half-life at 2 μM was 124 min. In addition, in series [2], the microsomal CLint at 2 μM was 19.4 µL/min/mg and the half-life at 2 μM was 71.5 min. In series [3], the recovery at 6 h, 1 μM came to 96.3% and the fraction unbound at 6 h, 1 μM was 0.0988. For the same molecule, the recovery at 6 h, 1 μM in series [4] came to 90.8%.
For `C[C@H](N)c1nnc(-c2cnn3ccc(N4CCC[C@@H]4c4cc(F)ccc4F)nc23)[nH]1` [Compound 11, (S)-1-(5-(5-((R)-2-(2,5-difluorophenyl)pyrrolidin-1-yl)pyrazolo[1,5-a]pyrimidin-3-yl)-4H-1,2,4-triazol-3-yl)ethan-1-amine], the microsomal CLint at 2 μM in series [1] worked out at 4.27 µL/min/mg; in series [2], 61.9 µL/min/mg. Also, the figures for the recovery at 6 h, 1 μM in series [3] and in series [4] were 89.3% and 87.5%, respectively. For the same molecule, the fraction unbound at 6 h, 1 μM in series [3] is 0.284; in series [4], 0.289.
With `OC1(c2nnc(-c3cnn4ccc(N5CCC[C@@H]5c5cc(F)ccc5F)nc34)[nH]2)CCC1` [Compound 23, (R)-1-(5-(5-(2-(2,5-difluorophenyl)pyrrolidin-1-yl)pyrazolo[1,5-a]pyrimidin-3-yl)-4H-1,2,4-triazol-3-yl)cyclobutan-1-ol], the figures for the microsomal CLint at 2 μM in series [1] and in series [2] were 9.36 µL/min/mg and 48.6 µL/min/mg, respectively. The values for the half-life at 2 μM in series [1] and in series [2] were 148 min and 28.5 min, respectively. The fraction unbound at 6 h, 1 μM is 0.0604 in series [3] and 0.0699 in series [4].
Turning to `CC(C)(O)Cc1nnc(-c2cnn3ccc(N4CCC[C@@H]4c4cc(F)ccc4F)nc23)[nH]1` [Compound 30, (R)-1-(5-(5-(2-(2,5-difluorophenyl)pyrrolidin-1-yl)pyrazolo[1,5-a]pyrimidin-3-yl)-4H-1,2,4-triazol-3-yl)-2-methylpropan-2-ol], the values for the microsomal CLint at 2 μM in series [1] and in series [2] were 16.8 µL/min/mg and 35.6 µL/min/mg, respectively. Moreover, the results for the half-life at 2 μM in series [1] and in series [2] were 82.7 min and 38.9 min, respectively. Besides, the recovery at 6 h, 1 μM stood at 90.7% in series [3] and 92.5% in series [4]. Moreover, the fraction unbound at 6 h, 1 μM in series [3] is 0.139; in series [4], 0.174.
For `OC1CC(c2nnc(-c3cnn4ccc(N5CCC[C@@H]5c5cc(F)ccc5F)nc34)[nH]2)C1` (stereo partly drawn) [Compound 31, (R)-3-(5-(5-(2-(2,5-difluorophenyl)pyrrolidin-1-yl)pyrazolo[1,5-a]pyrimidin-3-yl)-4H-1,2,4-triazol-3-yl)cyclobutan-1-ol], in series [1], the microsomal CLint at 2 μM is 16.4 µL/min/mg and the half-life at 2 μM stood at 84.6 min. Also, in series [2], the microsomal CLint at 2 μM came to 37 µL/min/mg and the half-life at 2 μM worked out at 37.4 min. Moreover, in series [3], the recovery at 6 h, 1 μM was determined as 96.8% and the fraction unbound at 6 h, 1 μM was 0.121. In series [4], the recovery at 6 h, 1 μM stood at 98.9% and the fraction unbound at 6 h, 1 μM was 0.131.
With `C[C@@H](CO)c1nnc(-c2cnn3ccc(N4CCC[C@@H]4c4cc(F)ccc4F)nc23)[nH]1` [Compound 39, (R)-2-(5-(5-((R)-2-(2,5-difluorophenyl)pyrrolidin-1-yl)pyrazolo[1,5-a]pyrimidin-3-yl)-4H-1,2,4-triazol-3-yl)propan-1-ol], in series [1], the microsomal CLint at 2 μM was determined as 17.2 µL/min/mg and the half-life at 2 μM is 80.6 min. In series [2], the microsomal CLint at 2 μM was determined as 41.4 µL/min/mg and the half-life at 2 μM stood at 33.5 min. Also, in series [3], the recovery at 6 h, 1 μM is 97.4% and the fraction unbound at 6 h, 1 μM is 0.111. For the same molecule, in series [4], the recovery at 6 h, 1 μM turned out to be 89.7% and the fraction unbound at 6 h, 1 μM was 0.116.
